≈ marks a conversion by molar mass, not a printed value. Where two headings read alike, the source gives them in different places.
Key:
[1] = system: Enterococcus faecalis CCM 4224, ATCC 29212; assay: Antibacterial microdilution broth MIC, EF; assay type: cell-based
[2] = system: Escherichia coli CCM 3954, ATCC 25922; assay: Antibacterial microdilution broth MIC, EC; assay type: cell-based
[3] = system: Mycolicibacterium aurum DSM 43999; assay: Antimycobacterial microdilution broth MIC (resazurin), M. aurum; assay type: cell-based; conditions: DSM43999, read-out: MIC M. aurum
[4] = system: Aspergillus fumigatus ATCC 204305; assay: Antifungal microdilution broth MIC, AF
[5] = system: Acinetobacter baumannii DSM 30007, ATCC 19606; assay: Antibacterial microdilution broth MIC, ACI; assay type: cell-based
[6] = system: Staphylococcus epidermidis CCM 4418, ATCC 12228; assay: Antibacterial microdilution broth MIC, SE; assay type: cell-based
HepG2 cell line = assay: Cytotoxicity CellTiter 96, HepG2; assay type: cell-based, human; conditions: Homo sapiens, HepG2, 24 h, 24 h incubation; ^c compound precipitated in the testing medium; ^d over the limit of tested concentrations
[7] = system: Staphylococcus aureus subsp. aureus CCM 4750, ATCC 43300 (MRSA); assay: Antibacterial microdilution broth MIC, MRSA; assay type: cell-based; conditions: Staphylococcus aureus
[8] = system: Pseudomonas aeruginosa CCM 3955, ATCC 27853; assay: Antibacterial microdilution broth MIC, PA; assay type: cell-based
[9] = system: Candida krusei CCM 8271, ATCC 6258; assay: Antifungal microdilution broth MIC, CK; conditions: Pichia kudriavzevii
[10] = system: Aspergillus flavus CCM 8363; assay: Antifungal microdilution broth MIC, AFla
[11] = system: Staphylococcus aureus CCM 4223, ATCC 29213; assay: Antibacterial microdilution broth MIC, SA; assay type: cell-based; conditions: Staphylococcus aureus
[12] = system: Candida parapsilosis CCM 8260, ATCC 22019; assay: Antifungal microdilution broth MIC, CP; conditions: Lodderomyces parapsilosis
[13] = system: Mycobacterium tuberculosis H37Ra; assay: Antimycobacterial microdilution broth MIC (resazurin), Mtb H37Ra; assay type: cell-based; conditions: for MIC: Mycobacterium tuberculosis, H37RA, read-out: MIC Mtb H37Ra; for SI (selectivity index): SI = HepG2 IC50 (μM)/MIC MtbH37Ra (μM), calculated for compounds with MIC ≤ 31.25 μg/mL
[14] = system: Candida tropicalis CCM 8264, ATCC 750; assay: Antifungal microdilution broth MIC, CT
[15] = system: Klebsiella pneumoniae CCM 4415, ATCC 10031; assay: Antibacterial microdilution broth MIC, KP
[16] = system: Trichophyton interdigitale CCM 8377, ATCC 9533; assay: Antifungal microdilution broth MIC, TI; conditions: Trichophyton interdigitale
[17] = system: Mycolicibacterium smegmatis DSM 43465; assay: Antimycobacterial microdilution broth MIC (resazurin), M. smegmatis; assay type: cell-based; conditions: DSM43465, read-out: MIC M. smegmatis
[18] = system: Candida albicans CCM 8320, ATCC 24433; assay: Antifungal microdilution broth MIC, CA
[19] = system: Lichtheimia corymbifera CCM 8077; assay: Antifungal microdilution broth MIC, LC
[20] = ATCC204305, 24 h, read-out: MIC AF 24h
[21] = ATCC204305, 48 h, read-out: MIC AF 48h
[22] = CCM8363, 24 h, read-out: MIC AFla 24h
[23] = CCM8363, 48 h, read-out: MIC AFla 48h
[24] = CCM8077, 24 h, read-out: MIC LC 24h
[25] = CCM8077, 48 h, read-out: MIC LC 48h

Row | Compound | MIC ([1]; 24 h, read-out: MIC EF 24h) | MIC ([1]; 48 h, read-out: MIC EF 48h) | MIC ([2]; 24 h, read-out: MIC EC 24h) | MIC ([2]; 48 h, read-out: MIC EC 48h) | MIC [3] | MIC [4, 20] | MIC [4, 21] | MIC ([5]; 24 h, read-out: MIC ACI 24h) | MIC ([5]; 48 h, read-out: MIC ACI 48h) | MIC ([6]; 24 h, read-out: MIC SE 24h) | MIC ([6]; 48 h, read-out: MIC SE 48h) | IC50 (HepG2 cell line) | MIC ([7]; 24 h, read-out: MIC MRSA 24h) | MIC ([7]; 48 h, read-out: MIC MRSA 48h) | MIC ([8]; 24 h, read-out: MIC PA 24h) | MIC ([8]; 48 h, read-out: MIC PA 48h) | MIC ([9]; 24 h, read-out: MIC CK 24h) | MIC ([9]; 48 h, read-out: MIC CK 48h) | MIC [10, 22] | MIC [10, 23] | other results
1 | O=C(Cc1ccc(Cl)cc1)Nc1ccccn1 [Compound 19] | > 500 µM | > 500 µM | > 500 µM | > 500 µM | > 500 µg/mL | > 500 µM | > 500 µM | > 500 µM | > 500 µM | 125 µM (≈ 30.8 µg/mL) | 125 µM (≈ 30.8 µg/mL) | 333 µM | > 500 µM | > 500 µM | > 500 µM | > 500 µM | 500 µM (≈ 123 µg/mL) | 500 µM (≈ 123 µg/mL) | > 500 µM | > 500 µM | MIC ([11]; 24 h, read-out: MIC SA 24h): 500 µM (≈ 123 µg/mL); MIC ([11]; 48 h, read-out: MIC SA 48h): 500 µM (≈ 123 µg/mL); MIC ([12]; 24 h, read-out: MIC CP 24h): 500 µM (≈ 123 µg/mL); MIC ([12]; 48 h, read-out: MIC CP 48h): 500 µM (≈ 123 µg/mL); MIC ([13]; Calculated from MIC (μg/mL)): 127 µM; MIC [13]: 31.2 µg/mL; SI (selectivity index) [13]: 2.6; MIC ([14]; 24 h, read-out: MIC CT 24h): > 500 µM; MIC ([14]; 48 h, read-out: MIC CT 48h): > 500 µM; MIC KP 24h [15]: > 500 µM; MIC KP 48h [15]: > 500 µM; MIC ([16]; 72 h, read-out: MIC TI 72h): 250 µM (≈ 61.7 µg/mL); MIC ([16]; 120 h, read-out: MIC TI 120h): 250 µM (≈ 61.7 µg/mL); MIC [17]: 31.2 µg/mL (≈ 127 µM); MIC ([18]; 24 h, read-out: MIC CA 24h): > 500 µM; MIC ([18]; 48 h, read-out: MIC CA 48h): > 500 µM; MIC [19, 24]: > 500 µM; MIC [19, 25]: > 500 µM
2 | O=C(Cc1ccccc1C(F)(F)F)Nc1ccccn1 [Compound 22] | > 500 µM | > 500 µM | > 500 µM | > 500 µM | 250 µg/mL (≈ 892 µM) | 500 µM (≈ 140 µg/mL) | > 500 µM | > 500 µM | > 500 µM | > 500 µM | > 500 µM | 445 µM | > 500 µM | > 500 µM | > 500 µM | > 500 µM | > 500 µM | > 500 µM | > 500 µM | > 500 µM | MIC ([11]; 24 h, read-out: MIC SA 24h): > 500 µM; MIC ([11]; 48 h, read-out: MIC SA 48h): > 500 µM; MIC ([12]; 24 h, read-out: MIC CP 24h): > 500 µM; MIC ([12]; 48 h, read-out: MIC CP 48h): > 500 µM; MIC ([13]; Calculated from MIC (μg/mL)): 446 µM; MIC [13]: 125 µg/mL; MIC ([14]; 24 h, read-out: MIC CT 24h): > 500 µM; MIC ([14]; 48 h, read-out: MIC CT 48h): > 500 µM; MIC KP 24h [15]: > 500 µM; MIC KP 48h [15]: > 500 µM; MIC ([16]; 72 h, read-out: MIC TI 72h): 500 µM (≈ 140 µg/mL); MIC ([16]; 120 h, read-out: MIC TI 120h): 500 µM (≈ 140 µg/mL); MIC [17]: 250 µg/mL (≈ 892 µM); MIC ([18]; 24 h, read-out: MIC CA 24h): > 500 µM; MIC ([18]; 48 h, read-out: MIC CA 48h): > 500 µM; MIC [19, 24]: 500 µM (≈ 140 µg/mL); MIC [19, 25]: > 500 µM
3 | O=C(Cc1ccccc1C(F)(F)F)Nc1ccc(Cl)cn1 [Compound 23] | > 500 µM | > 500 µM | > 500 µM | > 500 µM | > 500 µg/mL | > 500 µM | > 500 µM | > 500 µM | > 500 µM | > 500 µM | > 500 µM | 201 µM | > 500 µM | > 500 µM | > 500 µM | > 500 µM | > 500 µM | > 500 µM | > 500 µM | > 500 µM | MIC ([11]; 24 h, read-out: MIC SA 24h): > 500 µM; MIC ([11]; 48 h, read-out: MIC SA 48h): > 500 µM; MIC ([12]; 24 h, read-out: MIC CP 24h): > 500 µM; MIC ([12]; 48 h, read-out: MIC CP 48h): > 500 µM; MIC ([13]; Calculated from MIC (μg/mL)): 99.3 µM; MIC [13]: 31.2 µg/mL; SI (selectivity index) [13]: 2.0; MIC ([14]; 24 h, read-out: MIC CT 24h): > 500 µM; MIC ([14]; 48 h, read-out: MIC CT 48h): > 500 µM; MIC KP 24h [15]: > 500 µM; MIC KP 48h [15]: > 500 µM; MIC ([16]; 72 h, read-out: MIC TI 72h): 500 µM (≈ 157 µg/mL); MIC ([16]; 120 h, read-out: MIC TI 120h): 500 µM (≈ 157 µg/mL); MIC [17]: > 500 µg/mL; MIC ([18]; 24 h, read-out: MIC CA 24h): > 500 µM; MIC ([18]; 48 h, read-out: MIC CA 48h): > 500 µM; MIC [19, 24]: > 500 µM; MIC [19, 25]: > 500 µM
